Test results published in patent US20260365670A1, “EGFR INHIBITORS AND USES THEREOF” (DIZAL (JIANGSU) PHARMACEUTICAL CO., LTD., priority 2022, published 2026).
Where two headings read alike, the source gives them in different places.

Tests used:
EGFR L858R = target: T1, EGFR L858R (Homo sapiens, UniProt P00533, L858R); test: Inhibition of EGFR L858R biochemical enzymatic activity (HTRF); settings: 1 mM ATP, 1 h, room temperature, read-out: IC50 (nM) @L858R
T1 construct: purchased Carna Bio
Summary of the method: (§1)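 Recombinant kinases phosphorylated 1 μM biotinylated TK substrate with 1 mM ATP in buffer with 5 mM MgCl2, 1 mM MnCl2, 0.01% CHAPS, 1 mM DTT, 0.5% DMSO. Reaction ran 1 h at room temperature, stopped with EDTA-containing detection mix. HTRF 665/615 nm ratio gave IC50 via four-parameter logistic fit.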

[1] = target: T2, EGFR[T790M/C797S/d746-750] (Homo sapiens, UniProt P00533, C797S/DEL746-750/T790M); test: Inhibition of EGFR[T790M/C797S/d746-750] biochemical enzymatic activity (HTRF); settings: EGFR T790M-C797S-Del19, 1 mM ATP, 1 h, room temperature, read-out: IC50 (nM) @T790M - C797S - Del19
T2 construct: purchased Carna Bio
T2 sequence (P00533 with tags, fused parts or gaps DEL746-750/T790M/C797S limits assumed): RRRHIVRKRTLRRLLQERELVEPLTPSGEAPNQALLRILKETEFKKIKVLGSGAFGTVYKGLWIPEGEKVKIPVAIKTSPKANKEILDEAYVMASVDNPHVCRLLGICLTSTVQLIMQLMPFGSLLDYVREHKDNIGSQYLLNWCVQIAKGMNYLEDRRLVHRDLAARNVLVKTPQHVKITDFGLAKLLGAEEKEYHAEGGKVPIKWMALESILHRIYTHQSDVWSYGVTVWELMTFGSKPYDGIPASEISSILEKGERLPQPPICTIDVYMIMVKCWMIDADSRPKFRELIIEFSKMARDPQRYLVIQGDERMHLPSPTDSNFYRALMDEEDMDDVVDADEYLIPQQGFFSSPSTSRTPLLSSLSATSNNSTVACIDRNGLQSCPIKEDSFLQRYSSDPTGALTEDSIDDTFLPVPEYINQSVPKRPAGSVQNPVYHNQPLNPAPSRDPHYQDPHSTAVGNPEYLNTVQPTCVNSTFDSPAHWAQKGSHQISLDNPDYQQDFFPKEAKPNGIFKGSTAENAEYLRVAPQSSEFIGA
Summary of the method: as §1

EGFR Exon19Del/T790M = target: T3, EGFR Exon19Del/T790M (Homo sapiens, UniProt P00533, DEL746-750/T790M); test: Inhibition of EGFR Exon19Del/T790M biochemical enzymatic activity (HTRF); settings: EGFR Del19-T790M, 1 mM ATP, 1 h, room temperature, read-out: IC50 (nM) @Del19-T790M
T3 construct: purchased Carna Bio
T3 sequence (P00533 with tags, fused parts or gaps DEL746-750/T790M limits assumed): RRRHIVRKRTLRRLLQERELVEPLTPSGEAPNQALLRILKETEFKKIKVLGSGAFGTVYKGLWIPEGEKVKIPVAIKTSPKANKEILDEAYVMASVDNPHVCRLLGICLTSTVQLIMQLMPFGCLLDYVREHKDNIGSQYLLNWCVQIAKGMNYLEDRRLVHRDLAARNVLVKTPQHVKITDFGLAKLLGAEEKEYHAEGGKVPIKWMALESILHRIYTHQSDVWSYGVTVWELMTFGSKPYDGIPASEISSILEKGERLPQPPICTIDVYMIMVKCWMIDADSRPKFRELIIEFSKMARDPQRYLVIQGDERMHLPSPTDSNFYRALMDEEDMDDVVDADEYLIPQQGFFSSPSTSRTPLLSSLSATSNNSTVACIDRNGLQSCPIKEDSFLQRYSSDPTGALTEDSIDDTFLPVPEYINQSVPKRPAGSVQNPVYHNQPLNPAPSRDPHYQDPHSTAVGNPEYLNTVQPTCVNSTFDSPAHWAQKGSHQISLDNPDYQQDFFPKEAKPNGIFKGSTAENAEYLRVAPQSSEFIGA
Summary of the method: as §1

[2] = tested on: Ba/F3 cells expressing EGFR mutations; test: Cell proliferation assay, Ba/F3 cells expressing EGFR mutations (CellTiter-Glo, 72 hours); format: cell-based; settings: CellTiter-Glo
Summary of the method: (§2)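 Cells are exposed to graded compound concentrations after overnight plating, using 500 PC-9 or 5000 Ba/F3 per well. Baseline-subtracted viability is compared with vehicle to give percent proliferation, then GI50.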

EGFR (d746-750 C797S) = target: T4, EGFR (d746-750 C797S) (Homo sapiens, UniProt P00533, C797S/DEL746-750); test: Inhibition of EGFR (d746-750 C797S) biochemical enzymatic activity (HTRF); settings: EGFR Del19-C797S, 1 mM ATP, 1 h, room temperature, read-out: IC50 (nM) @Del19-C797S
T4 construct: purchased signalchem
T4 sequence (P00533 with tags, fused parts or gaps DEL746-750/C797S limits assumed): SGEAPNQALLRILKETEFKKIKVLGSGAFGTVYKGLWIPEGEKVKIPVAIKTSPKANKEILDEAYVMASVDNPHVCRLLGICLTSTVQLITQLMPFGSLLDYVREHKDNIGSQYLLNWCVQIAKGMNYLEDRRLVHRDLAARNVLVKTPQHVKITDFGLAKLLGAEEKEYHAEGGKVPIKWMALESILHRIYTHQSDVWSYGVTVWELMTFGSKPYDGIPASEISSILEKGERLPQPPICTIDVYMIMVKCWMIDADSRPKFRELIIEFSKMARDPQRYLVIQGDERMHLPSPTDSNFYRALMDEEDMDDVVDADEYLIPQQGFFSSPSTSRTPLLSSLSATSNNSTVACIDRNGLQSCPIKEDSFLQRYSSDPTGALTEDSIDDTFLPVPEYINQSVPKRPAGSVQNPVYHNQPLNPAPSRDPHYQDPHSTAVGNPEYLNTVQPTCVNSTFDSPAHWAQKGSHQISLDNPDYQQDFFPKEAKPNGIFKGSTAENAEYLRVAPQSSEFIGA
Summary of the method: as §1

EGFR wild type = target: T5, EGFR wild type (Homo sapiens, UniProt P00533); test: Inhibition of EGFR wild type biochemical enzymatic activity (HTRF); settings: EGFR WT, 1 mM ATP, 1 h, room temperature, read-out: IC50 (nM) @WT
T5 construct: purchased Carna Bio
T5 sequence (P00533 25-1210): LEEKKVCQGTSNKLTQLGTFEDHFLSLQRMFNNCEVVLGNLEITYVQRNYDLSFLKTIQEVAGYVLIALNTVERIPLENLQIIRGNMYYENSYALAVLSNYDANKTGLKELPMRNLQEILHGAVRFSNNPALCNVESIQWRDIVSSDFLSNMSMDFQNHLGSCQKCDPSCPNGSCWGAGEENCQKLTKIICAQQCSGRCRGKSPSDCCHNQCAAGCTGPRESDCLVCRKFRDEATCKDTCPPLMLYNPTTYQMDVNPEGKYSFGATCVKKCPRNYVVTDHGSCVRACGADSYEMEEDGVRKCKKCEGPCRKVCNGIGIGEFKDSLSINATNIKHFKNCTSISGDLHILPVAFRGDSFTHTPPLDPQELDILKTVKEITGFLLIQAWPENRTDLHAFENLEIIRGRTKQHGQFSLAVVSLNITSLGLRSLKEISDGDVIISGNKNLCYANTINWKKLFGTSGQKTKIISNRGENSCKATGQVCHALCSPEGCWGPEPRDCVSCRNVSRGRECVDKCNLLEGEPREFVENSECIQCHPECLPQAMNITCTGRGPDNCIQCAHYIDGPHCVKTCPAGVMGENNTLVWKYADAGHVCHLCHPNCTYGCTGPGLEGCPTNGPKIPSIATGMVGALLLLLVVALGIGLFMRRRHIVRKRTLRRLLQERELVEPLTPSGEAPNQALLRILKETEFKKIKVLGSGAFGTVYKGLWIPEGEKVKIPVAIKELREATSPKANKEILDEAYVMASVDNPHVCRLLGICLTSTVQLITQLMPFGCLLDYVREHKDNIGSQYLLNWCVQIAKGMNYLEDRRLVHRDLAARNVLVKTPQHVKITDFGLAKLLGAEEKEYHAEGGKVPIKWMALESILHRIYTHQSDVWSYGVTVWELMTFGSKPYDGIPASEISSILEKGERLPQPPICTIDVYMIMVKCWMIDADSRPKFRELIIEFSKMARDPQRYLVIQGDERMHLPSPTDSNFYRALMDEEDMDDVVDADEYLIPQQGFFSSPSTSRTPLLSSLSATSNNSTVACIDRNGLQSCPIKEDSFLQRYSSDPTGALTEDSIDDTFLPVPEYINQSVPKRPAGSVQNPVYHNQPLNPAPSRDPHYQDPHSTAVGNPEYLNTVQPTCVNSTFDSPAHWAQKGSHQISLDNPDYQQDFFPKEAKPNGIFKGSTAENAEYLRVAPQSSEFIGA
Summary of the method: as §1

PC-9 = test: Cell proliferation assay, PC-9 cells (CellTiter-Glo, 72 hours); format: cell-based; settings: PC9 cells, CellTiter-Glo, read-out: PC9 GI50
Summary of the method: as §2

EGFR (C797S L858R) = target: T6, EGFR (C797S L858R) (Homo sapiens, UniProt P00533, C797S/L858R); test: Inhibition of EGFR (C797S L858R) biochemical enzymatic activity (HTRF); settings: EGFR L858-C797S, 1 mM ATP, 1 h, room temperature, read-out: IC50 (nM) @L858-C797S
T6 construct: purchased signalchem
T6 sequence (P00533 25-1210 C797S/L858R): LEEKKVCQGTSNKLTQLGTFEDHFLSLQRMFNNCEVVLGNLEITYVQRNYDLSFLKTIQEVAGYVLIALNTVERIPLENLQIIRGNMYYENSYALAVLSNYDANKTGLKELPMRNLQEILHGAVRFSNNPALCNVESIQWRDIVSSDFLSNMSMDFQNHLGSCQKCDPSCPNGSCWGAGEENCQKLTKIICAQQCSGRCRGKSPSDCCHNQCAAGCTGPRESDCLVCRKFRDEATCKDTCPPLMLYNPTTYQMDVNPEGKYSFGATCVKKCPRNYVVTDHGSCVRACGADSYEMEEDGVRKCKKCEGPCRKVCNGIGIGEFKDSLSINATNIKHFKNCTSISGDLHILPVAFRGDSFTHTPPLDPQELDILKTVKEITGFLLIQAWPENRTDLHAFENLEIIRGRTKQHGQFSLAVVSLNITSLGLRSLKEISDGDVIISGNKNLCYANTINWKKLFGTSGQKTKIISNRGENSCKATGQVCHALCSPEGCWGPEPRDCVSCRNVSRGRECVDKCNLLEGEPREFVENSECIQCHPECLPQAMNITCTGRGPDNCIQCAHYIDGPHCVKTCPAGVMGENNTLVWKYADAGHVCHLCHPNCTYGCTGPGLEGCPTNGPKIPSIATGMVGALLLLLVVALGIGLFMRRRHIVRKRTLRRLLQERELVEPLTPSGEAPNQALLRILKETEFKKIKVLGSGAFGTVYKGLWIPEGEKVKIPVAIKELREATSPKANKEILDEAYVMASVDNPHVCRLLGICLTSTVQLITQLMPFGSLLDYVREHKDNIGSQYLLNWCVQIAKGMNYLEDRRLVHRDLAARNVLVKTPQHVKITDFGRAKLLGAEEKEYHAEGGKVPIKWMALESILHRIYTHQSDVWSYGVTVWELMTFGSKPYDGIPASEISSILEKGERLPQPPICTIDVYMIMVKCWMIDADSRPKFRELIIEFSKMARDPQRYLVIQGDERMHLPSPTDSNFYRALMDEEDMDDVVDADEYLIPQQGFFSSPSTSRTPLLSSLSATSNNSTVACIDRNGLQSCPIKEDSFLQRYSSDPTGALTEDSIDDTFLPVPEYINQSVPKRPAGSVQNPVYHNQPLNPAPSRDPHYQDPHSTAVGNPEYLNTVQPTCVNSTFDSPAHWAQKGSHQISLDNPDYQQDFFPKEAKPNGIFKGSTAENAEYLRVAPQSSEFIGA
Summary of the method: as §1

A-431 = test: Cell proliferation GI50, A-431 cells (Table 6); format: cell-based
EGFR[T790M/C797S/L858R] = target: T7, EGFR[T790M/C797S/L858R] (Homo sapiens, UniProt P00533, C797S/L858R/T790M); test: Inhibition of EGFR[T790M/C797S/L858R] biochemical enzymatic activity (HTRF); settings: EGFR T790M-C797S-L858R, 1 mM ATP, 1 h, room temperature, read-out: IC50 (nM) @T790M- C797S - L858R
T7 construct: purchased Carna Bio
Summary of the method: as §1

EGFR L858R/T790M = target: T8, EGFR L858R/T790M (Homo sapiens, UniProt P00533, L858R/T790M); test: Inhibition of EGFR L858R/T790M biochemical enzymatic activity (HTRF); settings: EGFR L858R-T790M, 1 mM ATP, 1 h, room temperature, read-out: IC50 (nM) @L858R-T790M
T8 construct: purchased Carna Bio
Summary of the method: as §1

EGFR Exon19Del = target: T9, EGFR Exon19Del (Homo sapiens, UniProt P00533, DEL746-750); test: Inhibition of EGFR Exon19Del biochemical enzymatic activity (HTRF); settings: EGFR Del19, 1 mM ATP, 1 h, room temperature, read-out: IC50 @Del19
T9 construct: purchased Carna Bio
T9 sequence (P00533 with tags, fused parts or gaps DEL746-750 limits assumed): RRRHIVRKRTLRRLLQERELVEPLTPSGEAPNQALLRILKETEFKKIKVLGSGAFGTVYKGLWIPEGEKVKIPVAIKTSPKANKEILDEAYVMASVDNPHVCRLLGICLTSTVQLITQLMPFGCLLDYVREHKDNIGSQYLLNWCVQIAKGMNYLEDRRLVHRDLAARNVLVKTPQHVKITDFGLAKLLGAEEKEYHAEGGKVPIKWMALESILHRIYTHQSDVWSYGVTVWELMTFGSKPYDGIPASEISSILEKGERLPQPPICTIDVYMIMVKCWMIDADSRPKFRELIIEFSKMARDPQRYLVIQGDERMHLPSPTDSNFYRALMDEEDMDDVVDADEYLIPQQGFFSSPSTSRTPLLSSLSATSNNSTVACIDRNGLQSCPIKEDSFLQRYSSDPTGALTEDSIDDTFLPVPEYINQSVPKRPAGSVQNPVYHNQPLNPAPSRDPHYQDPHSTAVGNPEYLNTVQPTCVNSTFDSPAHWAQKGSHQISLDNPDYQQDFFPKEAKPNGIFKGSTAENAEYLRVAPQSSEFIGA
Summary of the method: as §1

[3] = BaF3 cells, EGFR DEL19-C797S, read-out: DEL19-C797S/BaF3 GI50
[4] = BaF3 cells, EGFR DEL19-T790-C797S, read-out: DEL19-T790-C797S/BaF3 GI50
[5] = BaF3 cells, EGFR L858R, read-out: L858R/BaF3 GI50
[6] = BaF3 cells, EGFR L858R-C797S, read-out: L858R-C797S/BaF3 GI50
[7] = BaF3 cells, EGFR L858R-T790-C797S, read-out: L858R-T790-C797S/BaF3 GI50
[8] = BaF3 cells, EGFR L858R-T790M, read-out: L858R-T790M/BaF3 GI50
[9] = EGFR DEL19-T790M, read-out: DEL19-T790M GI50
[10] = Mus musculus, BaF3, 72 h, BaF3 cells, EGFR DEL19-C797S, read-out: DEL19-C797S/BaF3 GI50
[11] = Mus musculus, BaF3, 72 h, BaF3 cells, EGFR DEL19-T790-C797S, read-out: DEL19-T790-C797S/BaF3 GI50
[12] = Mus musculus, BaF3, 72 h, BaF3 cells, EGFR L858R, read-out: L858R/BaF3 GI50
[13] = Mus musculus, BaF3, 72 h, BaF3 cells, EGFR L858R-C797S, read-out: L858R-C797S/BaF3 GI50
[14] = Mus musculus, BaF3, 72 h, BaF3 cells, EGFR L858R-T790-C797S, read-out: L858R-T790-C797S/BaF3 GI50
[15] = Mus musculus, BaF3, 72 h, BaF3 cells, EGFR L858R-T790M, read-out: L858R-T790M/BaF3 GI50
[16] = Mus musculus, BaF3, 72 h, EGFR DEL19-T790M, read-out: DEL19-T790M GI50
[17] = Homo sapiens, A-431, A-431 cells

IC50 (EGFR L858R) [nM] | IC50 [1] [nM] | IC50 (EGFR Exon19Del/T790M) [nM] | GI50 [2, 3] [nM] | GI50 [2, 4] [nM] | GI50 [2, 5] [nM] | GI50 [2, 6] [nM] | GI50 [2, 7] [nM] | GI50 [2, 8] [nM] | GI50 [2, 9] [nM] | IC50 (EGFR (d746-750 C797S)) [nM] | IC50 (EGFR wild type) [nM] | GI50 (PC-9) [nM] | IC50 (EGFR (C797S L858R)) [nM] | GI50 (A-431; A-431 cells) [nM] | IC50 (EGFR[T790M/C797S/L858R]) [nM] | IC50 (EGFR L858R/T790M) [nM] | IC50 (EGFR Exon19Del) [nM] | GI50 [2, 10] [nM] | GI50 [2, 11] [nM] | SMILES | also measured
770 | 2860 | 4500 | 66 | 160 | 240 | 105 | 235 | 332 | 183 | 245 | > 5000 | 238 | 1040 | 2420 | > 5000 | > 5000 | 267 | – | – | CCN1CCN(c2ccc3nc4n(c3c2)C23CCC(CN(CCOc5c(cnn5C)-c5cc(cn(C)c5=O)C(=O)N4)C2)C3)CC1 (single isomer, unassigned) [Example A107A] | –
3 | 2 | 1.8 | 0.63 | 1.1 | 1 | 2.4 | 1.5 | 4.1 | 1.5 | 0.79 | 20 | 5.2 | 1.9 | 267 | 2.1 | 2.7 | 1.8 | – | – | CCN1CCN(c2ccc3nc4n(c3c2)C23CCC(CN(CCOc5c(cnn5C)-c5cc(cn(C)c5=O)C(=O)N4)C2)C3)CC1 (single isomer, unassigned) [Example A107B] | –
577 | 3170 | > 5000 | 84 | 204 | 202 | 123 | 223 | 369 | 227 | 268 | > 5000 | 320 | 942 | 1380 | > 5000 | > 5000 | 293 | – | – | CC(C)N1CCN(c2ccc3nc4n(c3c2)C23CCC(CN(CCOc5c(cnn5C)-c5cc(cn(C)c5=O)C(=O)N4)C2)C3)CC1 (single isomer, unassigned) [Example A108A] | –
1.9 | 1.4 | 1.7 | 0.67 | 1 | 1 | 1.1 | 1.2 | 3.9 | 1.3 | 0.77 | 7.7 | 4.6 | 1.5 | 320 | 1.1 | 1.3 | 1 | – | – | CC(C)N1CCN(c2ccc3nc4n(c3c2)C23CCC(CN(CCOc5c(cnn5C)-c5cc(cn(C)c5=O)C(=O)N4)C2)C3)CC1 (single isomer, unassigned) [Example A108B] | –
197 | 26 | 47 | – | – | – | – | – | – | – | 53 | 3550 | – | 120 | – | 121 | 120 | 81 | 22 | 170 | Cn1ncc2c1OCCN(CC(F)(F)F)CCn1c(nc3ccccc31)NC(=O)c1cc-2c(=O)n(C)c1 [Example A1, 5,26-Dimethyl-10-(2,2,2-trifluoroethyl)-7-oxa-4,5,10,13,20,22,26-heptaazapentacyclo[22.3.1.0^{2,6}.0^{13,21}.0^{14,19}]octacosa-1(28),2(6),3,14,16,18,20,24-octaene-23,27-dione] | GI50 [2, 12]: 6.1 nM; GI50 [2, 13]: 21 nM; GI50 [2, 14]: 27 nM; GI50 [2, 15]: 60 nM; GI50 [2, 16]: 114 nM; GI50 (PC-9; Homo sapiens, PC-9, 72 h): 68 nM; GI50 (A-431; [17]): 3570 nM
5 | 3.7 | 4.8 | – | – | – | – | – | – | – | 3.7 | 52 | – | 4.1 | – | 3.4 | 4.3 | 3.5 | 5.8 | 30 | CN1CCN(c2ccc3nc4n(c3c2)CCN(CC(F)(F)F)CCOc2c(cnn2C2CC2)-c2cc(cn(C)c2=O)C(=O)N4)CC1 [Example A2, 5-Cyclopropyl-26-methyl-16-(4-methylpiperazin-1-yl)-10-(2,2,2-trifluoroethyl)-7-oxa-4,5,10,13,20,22,26-heptaazapentacyclo[22.3.1.0^{2,6}.0^{13,21}.0^{14,19}]octacosa-1(28),2(6),3,14,16,18,20,24-octaene-23,27-dione] | GI50 [2, 12]: 3.7 nM; GI50 [2, 13]: 5.2 nM; GI50 [2, 14]: 6.7 nM; GI50 [2, 15]: 5.5 nM; GI50 [2, 16]: 33 nM; GI50 (PC-9; Homo sapiens, PC-9, 72 h): 80 nM; GI50 (A-431; [17]): 1010 nM
13 | 8.9 | 9.3 | – | – | – | – | – | – | – | 6.7 | 104 | – | 10 | – | 8.5 | 12 | 12 | 16 | 124 | CN1CCN(c2ccc3nc4n(c3c2)CCN(CC(F)(F)F)CCOc2c(cnn2C)-c2cc(cn(C)c2=O)C(=O)N4)CC1 [Example A3, 5,26-Dimethyl-16-(4-methylpiperazin-1-yl)-10-(2,2,2-trifluoroethyl)-7-oxa-4,5,10,13,20,22,26-heptaazapentacyclo[22.3.1.0^{2,6}.0^{13,21}.0^{14,19}]octacosa-1(28),2(6),3,14,16,18,20,24-octaene-23,27-dione] | GI50 [2, 12]: 9.7 nM; GI50 [2, 13]: 11 nM; GI50 [2, 14]: 22 nM; GI50 [2, 15]: 30 nM; GI50 [2, 16]: 128 nM; GI50 (PC-9; Homo sapiens, PC-9, 72 h): 236 nM; GI50 (A-431; [17]): 1290 nM
> 5000 | 560 | 704 | – | – | – | – | – | – | – | 628 | > 5000 | – | > 5000 | – | > 5000 | > 5000 | 849 | 392 | 1160 | Cn1ncc2c1OCCN(C1COC1)CCn1c(nc3ccccc31)NC(=O)c1cc-2c(=O)n(C)c1 [Example A5, 5,26-Dimethyl-10-(oxetan-3-yl)-7-oxa-4,5,10,13,20,22,26-heptaazapentacyclo[22.3.1.0^{2,6}.0^{13,21}.0^{14,19}]octacosa-1(28),2(6),3,14,16,18,20,24-octaene-23,27-dione] | GI50 [2, 12]: 454 nM; GI50 [2, 13]: 764 nM; GI50 [2, 14]: 859 nM; GI50 [2, 15]: 961 nM; GI50 [2, 16]: 747 nM; GI50 (PC-9; Homo sapiens, PC-9, 72 h): 482 nM; GI50 (A-431; [17]): 2870 nM
